In US7968080B2, “Somatostatin analogs with inhibitory activity to growth hormone release” (The Regents of the University of California, priority 2003, dated 2011):
Like-named read-outs stand apart in the source and are kept apart here.

Key:
[1] = target: SST1 (Homo sapiens, UniProt P30872); assay: Binding affinities of SS-14, Sandostatin and RC-121 (Table 1); conditions: read-out: Ki ± SEM, SST1
[2] = target: SST3 (Homo sapiens, UniProt P32745); assay: as above; conditions: read-out: Ki ± SEM, SST3
Sequence of SST3 (P32745 whole entry, species assumed): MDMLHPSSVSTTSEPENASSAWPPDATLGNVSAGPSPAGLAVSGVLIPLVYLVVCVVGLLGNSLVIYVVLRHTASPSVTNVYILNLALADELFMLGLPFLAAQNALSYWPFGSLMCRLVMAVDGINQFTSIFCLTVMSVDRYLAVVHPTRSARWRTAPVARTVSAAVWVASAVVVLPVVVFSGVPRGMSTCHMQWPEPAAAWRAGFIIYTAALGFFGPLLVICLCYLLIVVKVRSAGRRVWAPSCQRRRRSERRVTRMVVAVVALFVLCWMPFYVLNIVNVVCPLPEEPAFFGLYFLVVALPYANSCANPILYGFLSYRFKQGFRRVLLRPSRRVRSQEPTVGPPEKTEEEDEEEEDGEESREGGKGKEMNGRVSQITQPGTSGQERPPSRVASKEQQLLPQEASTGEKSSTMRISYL

[3] = target: SST4 (Homo sapiens, UniProt P31391); assay: as above; conditions: read-out: Ki ± SEM, SST4
Sequence of SST4 (P31391 whole entry, species assumed): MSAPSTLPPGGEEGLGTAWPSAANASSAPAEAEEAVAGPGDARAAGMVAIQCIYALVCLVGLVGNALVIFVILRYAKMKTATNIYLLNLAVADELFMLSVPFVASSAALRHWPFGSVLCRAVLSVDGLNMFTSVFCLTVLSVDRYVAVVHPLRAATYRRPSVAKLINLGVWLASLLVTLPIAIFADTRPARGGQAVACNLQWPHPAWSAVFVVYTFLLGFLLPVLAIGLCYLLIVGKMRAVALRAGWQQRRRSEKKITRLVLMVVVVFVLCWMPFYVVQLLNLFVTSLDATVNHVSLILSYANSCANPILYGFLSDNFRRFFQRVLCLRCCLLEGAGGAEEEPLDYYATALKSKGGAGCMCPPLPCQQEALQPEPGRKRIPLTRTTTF

[4] = system: SST 1-5; conditions: background statement; cited from earlier work
[5] = target: hsst2 (Homo sapiens, UniProt P30874); assay: Binding of beta-MeTrp analogs of L-363,301 to hsst2
Sequence of hsst2 (P30874 whole entry): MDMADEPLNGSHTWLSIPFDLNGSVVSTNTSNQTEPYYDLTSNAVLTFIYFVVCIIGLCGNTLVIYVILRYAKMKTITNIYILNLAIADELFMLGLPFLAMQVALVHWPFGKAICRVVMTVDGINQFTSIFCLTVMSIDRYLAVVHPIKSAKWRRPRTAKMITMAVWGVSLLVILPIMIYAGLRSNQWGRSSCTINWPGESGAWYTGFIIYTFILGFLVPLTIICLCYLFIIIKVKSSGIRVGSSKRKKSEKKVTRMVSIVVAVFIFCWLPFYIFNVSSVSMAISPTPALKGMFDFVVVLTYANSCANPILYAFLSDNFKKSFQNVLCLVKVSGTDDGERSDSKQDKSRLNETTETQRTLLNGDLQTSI

[6] = system: somatostatin receptors hsst1-5; assay: Binding potencies and selectivities at somatostatin receptors hsst1-5; design: species or system human

Sequence of SST1 (P30872 whole entry, species assumed): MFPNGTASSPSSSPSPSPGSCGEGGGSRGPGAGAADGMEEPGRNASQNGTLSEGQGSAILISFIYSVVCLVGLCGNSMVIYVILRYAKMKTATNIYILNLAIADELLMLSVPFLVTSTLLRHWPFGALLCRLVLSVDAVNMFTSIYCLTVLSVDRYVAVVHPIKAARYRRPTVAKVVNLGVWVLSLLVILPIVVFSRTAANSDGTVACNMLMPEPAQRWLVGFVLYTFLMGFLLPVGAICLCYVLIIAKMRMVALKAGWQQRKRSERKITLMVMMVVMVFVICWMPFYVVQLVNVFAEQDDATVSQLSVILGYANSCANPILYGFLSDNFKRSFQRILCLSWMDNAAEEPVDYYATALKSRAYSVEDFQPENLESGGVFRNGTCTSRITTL

Compound | interaction with SS receptor subtypes (background) [4] | binding to receptor hsst2 [5] | potency relative to parent peptide L-363,301 [6] | selectivity among hsst1-5 [6] | also measured
CC(C)[C@@H]1NC(=O)[C@H](CCCCN)NC(=O)[C@@H](Cc2c[nH]c3ccccc23)NC(=O)[C@H](Cc2ccc(O)cc2)NC(=O)[C@@H](NC(=O)[C@H](N)Cc2ccccc2)CSSC[C@@H](C(=O)N[C@H](C(N)=O)[C@@H](C)O)NC1=O [RC-121, D-Phe-c[Cys-Tyr-D-Trp-Lys-Val-Cys]-Thr-NH2] | – | – | – | – | Ki [1]: > 1000 nM; Ki [2]: > 1000 nM; Ki [3]: > 1000 nM
C[C@@H](O)[C@@H]1NC(=O)[C@H](CCCCN)NC(=O)[C@@H](Cc2c[nH]c3ccccc23)NC(=O)[C@H](Cc2ccccc2)NC(=O)[C@@H](NC(=O)[C@H](N)Cc2ccccc2)CSSC[C@@H](C(=O)N[C@H](CO)[C@@H](C)O)NC1=O [Sandostatin, D-Phe-c[Cys-Phe-D-Trp-Lys-Thr-Cys]-Thr-ol] | interact significantly with three of the receptor subtypes, i.e. SST2, SST3 and SST5 | – | – | – | –
SS-28: N-terminally extended version of SS-14 that has an additional 14 amino acid residues | high affinity | – | – | – | –
c[Pro-Phe-(2R,3R)-β-MeTrp-Lys-Thr-Phe] | – | nanomolar range | much less active | highly selective for hsst2 | –
c[Pro-Phe-(2R,3S)-β-MeTrp-Lys-Thr-Phe] | – | nanomolar range | more potent than the parent peptide | highly selective for hsst2 | binding to receptor hsst2 ([5]; listed as (2R,3S)-β-MeTrp diastereomer): bind very well to hsst2
